Each structure is given as a SMILES string. Some results are limits rather than exact numbers.

What all share (format): cell-based
In one test the test system is SW 900. Put plainly: In vitro efficacy of free drug silvestrol compounds, SW 900. The settings on record: Homo sapiens, SW900; SW 900 cell line. The source says:
(§1) The CellTiter-Glo® Luminescent Cell Viability Assay is a commercially available (Promega Corp., Madison, Wis.), homogeneous assay method based on the recombinant expression of Coleoptera luciferase (U.S. Pat. Nos. 5,583,024; 5,674,713; 5,700,670). This cell proliferation assay determines the number of viable cells in culture based on quantitation of the ATP present, an indicator of metabolically active cells (Crouch et al (1993) J. Immunol. Meth. 160:81-88; U.S. Pat. No. 6,602,677). The CellTiter-Glo® Assay was conducted in 96 well format, making it amenable to automated high-throughput screening (HTS) (Cree et al (1995) AntiCancer Drugs 6:398-404). The homogeneous assay procedure involves adding the single reagent (CellTiter-Glo® Reagent) directly to cells cultured in serum-supplemented medium. […]
(§2) Inhibition of cell proliferation in vitro may be assayed using the CellTiter-Glo™ Luminescent Cell Viability Assay, an embodiment of which is detailed as Example 6. Such assay determines the number of viable cells in culture based on quantitation of ATP present, which is an indication of metabolically active cells (Crouch et al. (1993) J. Immunol. Meth. 160:81-88; U.S. Pat. No. 6,602,677). […] Data can be recorded by luminometer or CCD camera imaging device. The luminescence output is expressed as relative light units (RLU).

Another test relates to cell lines of Table 7. Put plainly: In vitro efficacy of free drug silvestrol compounds, summary over cell lines of Table 7. The settings on record: summary of Table 7. From the text: The CellTiter-Glo® Luminescent Cell Viability Assay is a commercially available (Promega Corp., Madison, Wis.), homogeneous assay method based on the recombinant expression of Coleoptera luciferase (U.S. Pat. Nos. 5,583,024; 5,674,713; 5,700,670). This cell proliferation assay determines the number of viable cells in culture based on quantitation of the ATP present, an indicator of metabolically active cells (Crouch et al (1993) J. Immunol. Meth. 160:81-88; U.S. Pat. No. 6,602,677). The CellTiter-Glo® Assay was conducted in 96 well format, making it amenable to automated high-throughput screening (HTS) (Cree et al (1995) AntiCancer Drugs 6:398-404). The homogeneous assay procedure involves adding the single reagent (CellTiter-Glo® Reagent) directly to cells cultured in serum-supplemented medium. Cell washing, removal of medium and multiple pipetting steps are not required. The system detects as few as 15 cells/well in a 384-well format in 10 minutes after adding reagent and mixing. The cells may be treated continuously with ADC, or they may be treated and separated from ADC.
Inhibition of cell proliferation in vitro may be assayed using the CellTiter-Glo™ Luminescent Cell Viability Assay, an embodiment of which is detailed as Example 6. Such assay determines the number of viable cells in culture based on quantitation of ATP present, which is an indication of metabolically active cells (Crouch et al. (1993) J. Immunol. Meth. 160:81-88; U.S. Pat. No. 6,602,677). The assay may be conducted in 96- or 384-well format, making it amenable to automated high-throughput screening (HTS). See Cree et al. (1995) AntiCancer Drugs 6:398-404. The assay procedure involves adding a single reagent (CellTiter-Glo® Reagent) directly to cultured cells. […] The luminescent signal is proportional to the amount of ATP present, which is directly proportional to the number of viable cells present in culture. Data can be recorded by luminometer or CCD camera imaging device. The luminescence output is expressed as relative light units (RLU). […]

The next test has as its system KPL-4 cells. The test is described as follows: In vitro cell viability (CellTiter-Glo), KPL-4 cells. Conditions: Homo sapiens, KPL4; KPL-4 cell line; read-out: IC50 (nM) free drug. Here is the method: (§3) Generally, the cytotoxic or cytostatic activity of an antibody-drug conjugate (ADC) is measured by: exposing mammalian cells having receptor proteins, e.g. HER2, to the antibody of the ADC in a cell culture medium; culturing the cells for a period from about 6 hours to about 5 days; and measuring cell viability. Cell-based in vitro assays were used to measure viability (proliferation), cytotoxicity, and induction of apoptosis (caspase activation) of the ADC of the invention.
(§4) The CellTiter-Glo® Luminescent Cell Viability Assay is a commercially available (Promega Corp., Madison, Wis.), homogeneous assay method based on the recombinant expression of Coleoptera luciferase (U.S. Pat. Nos. 5,583,024; 5,674,713; 5,700,670). This cell proliferation assay determines the number of viable cells in culture based on quantitation of the ATP present, an indicator of metabolically active cells (Crouch et al (1993) J. Immunol. Meth. 160:81-88; U.S. Pat. No. 6,602,677). […]
(§5) Inhibition of cell proliferation in vitro may be assayed using the CellTiter-Glo™ Luminescent Cell Viability Assay, an embodiment of which is detailed as Example 6. Such assay determines the number of viable cells in culture based on quantitation of ATP present, which is an indication of metabolically active cells (Crouch et al. (1993) J. Immunol. Meth. 160:81-88; U.S. Pat. No. 6,602,677). […]

The next test deals with HCC1937. The test is described as follows: In vitro efficacy of free drug silvestrol compounds, HCC1937. Conditions: Homo sapiens; HCC1937 cell line.
Description: as §1, §2

Another test concerns MES-SA/Dx5. The test is described as follows: In vitro efficacy of free drug silvestrol compounds, MES-SA/Dx5. The settings on record: Homo sapiens; MES-SA/Dx5 cell line.
Description: as §1, §2

The subject of the next test is HCC1569 X2. The test is described as follows: In vitro efficacy of free drug silvestrol compounds, HCC1569 X2. Conditions: Homo sapiens; HCC1569 X2 cell line.
Description: as §1
Inhibition of cell proliferation in vitro may be assayed using the CellTiter-Glo™ Luminescent Cell Viability Assay, an embodiment of which is detailed as Example 6. Such assay determines the number of viable cells in culture based on quantitation of ATP present, which is an indication of metabolically active cells (Crouch et al. (1993) J. Immunol. Meth. 160:81-88; U.S. Pat. No. 6,602,677). […] Data can be recorded by luminometer or CCD camera imaging device. The luminescence output is expressed as relative light units (RLU). […]

The test system of the next test is BJAB. The test is described as follows: In vitro efficacy of free drug silvestrol compounds, BJAB. The settings on record: Homo sapiens; BJAB cell line.
Description: as §1, §2

Another test has as its system MES-SA. Put plainly: In vitro efficacy of free drug silvestrol compounds, MES-SA. The settings on record: Homo sapiens; MES-SA cell line.
Description: as §1, §2

The test system of the next test is T-47D. The test is described as follows: In vitro efficacy of free drug silvestrol compounds, T-47D. Conditions: Homo sapiens, T47D; T-47D cell line.
Description: as §1, §2

The next test has as its system NCI-H1781. The test is described as follows: In vitro efficacy of free drug silvestrol compounds, NCI-H1781. The settings on record: NCI-H1781 cell line.
Description: as §1, §2

In another test the test system is SK-BR-3 cells. The test is described as follows: In vitro cell viability (CellTiter-Glo), SK-BR-3 cells. Conditions: Homo sapiens, read-out: IC50 free drug. Here is the method: as §3, §4, §5

Consider `COC(=O)[C@H]1[C@@H](O)[C@@]2(O)c3c(OC)cc(O[C@@H]4O[C@@H](CCN)CO[C@H]4OC)cc3O[C@@]2(c2ccc(OC)cc2)[C@@H]1c1ccccc1` [amino silvestrol analog, (1R,2R,3S,3aR,8bS)-methyl 6-(((2S,3R,6S)-6-(2-aminoethyl)-3-methoxy-1,4-dioxan-2-yl)oxy)-1,8b-dihydroxy-8-methoxy-3a-(4-methoxyphenyl)-3-phenyl-2,3,3a,8b-tetrahydro-1H-cyclopenta[b]benzofuran-2-carboxylate], for which the IC50 in the test with SW 900 is 2.9 nM; in the test with KPL-4 cells, 1.2 nM; in the test on HCC1937 it was 0.66 nM; in the test on MES-SA/Dx5 it was over 100 nM; in the test with HCC1569 X2, 1.3 nM; in the test with BJAB, 0.81 nM. The IC50 in the test on MES-SA was 1.1 nM; with T-47D it was 1 nM; with NCI-H1781, 1 nM; in the test with SK-BR-3 cells it was 1.6 nM. In addition, in the test on cell lines of Table 7, the “IC50s of free drug, in words” value is recorded as “pM or low nM”. Besides, the “activity of free drug in vitro” value in the test on cell lines of Table 7 is “active”.
Regarding `COc1ccc([C@@]23Oc4cc(O[C@@H]5O[C@@H]([C@H](O)CO)CO[C@H]5OC)cc(OC)c4[C@]2(O)[C@H](O)[C@H](C(=O)NCCN)[C@H]3c2ccccc2)cc1` [silvestrol amine, (1R,2R,3S,3aR,8bS)-N-(2-aminoethyl)-6-(((2S,3R,6R)-6-((R)-1,2-dihydroxyethyl)-3-methoxy-1,4-dioxan-2-yl)oxy)-1,8b-dihydroxy-8-methoxy-3a-(4-methoxyphenyl)-3-phenyl-2,3,3a,8b-tetrahydro-1H-cyclopenta[b]benzofuran-2-carboxamide], the concentration for half-maximal inhibition (IC50) with SW 900, with KPL-4 cells, with HCC1937, in the test with MES-SA/Dx5, with HCC1569 X2 and with BJAB was over 200 nM throughout. In addition, the IC50 is over 100 nM in the test on MES-SA, over 200 nM in the test with T-47D and over 200 nM in the test on NCI-H1781. Moreover, the “activity of free drug in vitro” value in the test on cell lines of Table 7 was “inactive”.

The values above are taken from patent US11648315B2, “Silvestrol antibody-drug conjugates and methods of use” (Genentech, Inc., priority 2016, dated 2023).
